Measurements taken from ChEMBL document CHEMBL3351390, “DNA repair and redox activities and inhibitors of apurinic/apyrimidinic endonuclease 1/redox effector factor 1 (APE1/Ref-1): a comparative analysis and their scope and limitations toward anticancer drug development” (J Med Chem, 2014).

The molecules below were run against DNA repair nuclease/redox regulator APEX1 (Homo sapiens, UniProt P27695) (assay: Inhibition of human APE1 after 25 mins by fluorescence assay).
DNA repair nuclease/redox regulator APEX1, sequence (P27695 whole entry): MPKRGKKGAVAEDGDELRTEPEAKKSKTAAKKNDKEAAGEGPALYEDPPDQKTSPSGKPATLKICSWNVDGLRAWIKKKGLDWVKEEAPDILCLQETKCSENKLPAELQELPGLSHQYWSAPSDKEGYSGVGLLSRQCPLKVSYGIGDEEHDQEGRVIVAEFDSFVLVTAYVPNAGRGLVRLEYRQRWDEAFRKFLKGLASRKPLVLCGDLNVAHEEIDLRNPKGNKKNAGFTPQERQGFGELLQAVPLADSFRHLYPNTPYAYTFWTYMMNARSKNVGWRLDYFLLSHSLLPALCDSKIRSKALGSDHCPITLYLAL

| Structure (SMILES) | IC50 |
| --- | --- |
| Nc1c(S(=O)(=O)O)cc(Nc2ccc(Nc3nc(Cl)nc(Nc4ccc(S(=O)(=O)O)cc4)n3)c(S(=O)(=O)O)c2)c2c1C(=O)c1ccccc1C2=O | 0.25 µM |
| O=C(O)c1cc2cccc([N+](=O)[O-])c2[nH]1 | 3 µM |
| O=C(O)C1=CC(=C(c2ccc(O)c(C(=O)O)c2)c2ccc(O)c(C(=O)O)c2)C=CC1=O [AURINTRICARBOXYLIC ACID] | 10 µM |
